Assay results: PMC6271619, “Synthesis, Half-Wave Potentials and Antiproliferative Activity of 1-Aryl-substituted Aminoisoquinolinequinones” (Molecules, 2014)

Experiments:
[1] = system: AGS human gastric adenocarcinoma cells; assay: MTT cell growth inhibition assay, AGS gastric adenocarcinoma cells, 72 h exposure; type: cell-based; details: for IC50: human gastric adenocarcinoma cell line, MTT, 72 h, mean of six determinations, read-out: IC50 ± SEM AGS; for selectivity index (IS), AGS: MRC-5 relative to AGS
[2] = system: HL-60 human promyelocytic leukemia cells; assay: MTT cell growth inhibition assay, HL-60 promyelocytic leukemia cells, 72 h exposure; type: cell-based; details: for IC50: Homo sapiens, HL-60, promyelocytic leukemia cell line, MTT, 72 h, mean of six determinations, read-out: IC50 ± SEM HL-60
[3] = Cyclic voltammetry, first half-wave potential; type: physicochemical; details: for −E^I1/2: sign inverted, 0.1 M tetraethylammonium tetrafluoroborate, sweep rate 100 mV s^−1; for −E^I1/2 / E^I1/2 (first half-wave potential): acetonitrile, Pt electrode, vs non-aqueous Ag/Ag+
Experimental: The redox potentials of the members of the series were measured by cyclic voltammetry in acetonitrile as solvent, at room temperature, using a platinum electrode and 0.1 M tetraethylammonium tetrafluoroborate as the supporting electrolyte. […] The voltammograms were run in the potential range 0–2.0 V versus non-aqueous Ag/Ag+. The first half-wave potential values, E^I1/2, evaluated from the voltammograms obtained at a sweep rate of 100 mV s^−1, are summarized in Table 3.

[4] = system: MRC-5 normal human lung fibroblasts; assay: MTT cell growth inhibition assay, MRC-5 normal lung fibroblasts, 72 h exposure; details: MRC5, 72 h, read-out: IC50 ± SEM MRC-5
Experimental: Aminoisoquinolinequinones 5a–h and 6a–f were evaluated for in vitro antiproliferative activity against normal human lung fibroblast MRC-5 and two human cancer cells lines: AGS gastric adenocarcinoma and HL-60 promyelocytic leukemia cells, in 72 h drugs exposure assays. The antiproliferative activity of the new compounds was measured using conventional microculture tetrazolium reduction assays [25, 26, 27].
The cell lines used in this work were obtained from the American Type Culture Collection (ATCC, Manasas, VA, USA). […] The cells were stored in medium containing 10% glycerol in liquid nitrogen. […] Cells were sub-cultured once a week and the medium was changed every two days. Cells were grown in the following media: MRC-5 in Eagle minimal essential medium (EMEM), AGS cells in Ham F-12, and HL-60 in suspension in RPM1. The EMEM medium contained 2 mM L-glutamine, 1 mM sodium pyruvate and 1.5 g/L sodium hydrogen carbonate. Ham F-12 was supplemented with 2 mM L-glutamine and 1.5 g/L sodium hydrogen carbonate. RPM1 medium containing 1mM sodium pyruvate and 2.0 g/L sodium bicarbonate. […] For the experiments, cells were plated at a density of 50,000 cells/mL in 96-well plates. One day after seeding, the cells were treated with the medium containing the compounds at concentrations ranging from 0 up to 100 μM during 3 days. […] The compounds were dissolved in DMSO (1% final concentration) and complete medium. Untreated cells (medium containing 1% DMSO) were used as controls. At the end of the incubation, the MTT reduction (3-(4,5-dimethylthiazol-2-yl)-2,5-diphenyltetrazolium bromide) assay was carried out to determine cell viability. The final concentration of MTT was 1 mg/mL. The culture medium containing the compounds under evaluation, was removed from each well by means by vacuum aspiration before adding the MTT solution. MTT metabolite was dissolved adding 100 µL of ethanol (acidified with HCl). The plates were shaken for 10 min and the absorbance was measured at 550 nm using a Universal Microplate Reader (ELx800, Bio-Tek Instruments Inc., Winnoski, VT, USA). Six replicates for each concentration were used and the values were averaged. […] The IC50 value was obtained adjusting the dose-response curve to a sigmoidal model (a + (b − a)/1 + 10^(x − c)), where c = log IC50.

SMILES | IC50 [1] | IC50 [2] | −E^I1/2 [3] | melting point | E^I1/2 (first half-wave potential) [3] | E^I1/2 (half-wave potential) [3] | IC50 [4] | antiproliferative activity on AGS cancer cell line (in words) ([1]; effect of phenyl group inserted at 1-position of 5b) | selectivity index (IS), AGS [1] | selectivity index (IS), HL-60 ([2]; MRC-5 relative to HL-60)
CC(=O)c1c(C)nc(-c2cccs2)c2c1C(=O)C=CC2=O [4c, 4-Acetyl-3-methyl-1-(thiophen-2-yl)isoquinoline-5,8-dione] | – | – | 430 mV | 161.5 to 163 °C | – | – | – | – | – | –
CC(=O)c1c(C)ncc2c1C(=O)C=CC2=O [4a, 4-Acetyl-3-methylisoquinoline-5,8-dione] | – | – | 344 mV | 146 to 148 °C | −344 mV | – | – | – | – | –
COC(=O)c1c(C)nc(-c2ccccc2)c2c1C(=O)C=CC2=O [3b, Methyl 3-methyl-5,8-dioxo-1-phenyl-5,8-dihydroisoquinoline-4-carboxylate] | – | – | 399 mV | 175 to 176.5 °C | – | – | – | – | – | –
COC(=O)c1c(C)ncc2c1C(=O)C=CC2=O [3a] | – | – | 352 mV | – | −352 mV | – | – | – | – | –
COC(=O)c1c(C)nc(-c2ccco2)c2c1C(=O)C=CC2=O [3d, Methyl 1-(furan-2-yl)-3-methyl-5,8-dioxo-5,8-dihydroisoquinoline-4-carboxylate] | – | – | 415 mV | 159.5 to 160.5 °C | – | – | – | – | – | –
CC(=O)c1c(C)nc(-c2ccco2)c2c1C(=O)C=CC2=O [4d, 4-Acetyl-1-(furan-2-yl)-3-methylisoquinoline-5,8-dione] | – | – | 384 mV | 159 to 160 °C | – | – | – | – | – | –
CC(=O)c1c(C)nc(-c2ccccc2)c2c1C(=O)C=CC2=O [4b, 4-Acetyl-3-methyl-1-phenylisoquinoline-5,8-dione] | – | – | 416 mV | 162.5 to 164 °C | – | – | – | – | – | –
COC(=O)c1c(C)nc(-c2cccs2)c2c1C(=O)C=CC2=O [3c, Methyl 3-methyl-5,8-dioxo-1-(thiophen-2-yl)-5,8-dihydroisoquinoline-4-carboxylate] | – | – | 392 mV | 140 to 142.5 °C | – | – | – | – | – | –

Continued, in another order:

IC50 [1] | IC50 [2] | −E^I1/2 [3] | melting point | E^I1/2 (first half-wave potential) [3] | E^I1/2 (half-wave potential) [3] | SMILES | IC50 [4] | antiproliferative activity on AGS cancer cell line (in words) ([1]; effect of phenyl group inserted at 1-position of 5b) | selectivity index (IS), AGS [1] | selectivity index (IS), HL-60 ([2]; MRC-5 relative to HL-60)
1.79 ± 0.11 µM | 5 ± 0.35 µM | 554 mV | 248 to 249 °C | – | – | COC(=O)c1c(C)nc(-c2ccco2)c2c1C(=O)C=C(Nc1ccccc1)C2=O [5g, Methyl 1-(2-furan-2-yl)-3-methyl-5,8-dioxo-7-(phenylamino)-5,8-dihydroisoquinoline-4-carboxylate] | 4.72 ± 0.29 µM | – | – | –
1.1 ± 0.1 µM | 3.8 ± 0.07 µM | 551 mV | – | – | – | COC(=O)c1c(C)ncc2c1C(=O)C=C(Nc1ccc(OC)cc1)C2=O [5b] | 2.8 ± 0.8 µM | – | – | –
> 100 µM | > 100 µM | 583 mV | 202 to 203.5 °C | – | – | COC(=O)c1c(C)nc(-c2ccccc2)c2c1C(=O)C=C(Nc1ccc(OC)cc1)C2=O [5d, Methyl 7-(4-methoxyphenylamino)-3-methyl-5,8-dioxo-1-phenyl-5,8-dihydroisoquinoline-4-carboxylate] | > 100 µM | suppression of the antiproliferative activity | – | –
4.24 ± 0.21 µM | 5.19 ± 0.31 µM | 565 mV | 163.3 to 165.3 °C | – | – | COC(=O)c1c(C)nc(-c2cccs2)c2c1C(=O)C=C(Nc1ccccc1)C2=O [5e, Methyl 3-methyl-5,8-dioxo-7-(phenylamino)-1-(thiophen-2-yl)-5,8-dihydroisoquinoline-4-carboxylate] | 9.89 ± 0.51 µM | – | – | –
1.19 ± 0.07 µM | 1.24 ± 0.06 µM | 464 mV | 178 to 180 °C | −464 mV | -464 mV | CC(=O)c1c(C)ncc2c1C(=O)C=C(Nc1ccccc1)C2=O [6a, 4-Acetyl-3-methyl-7-(phenylamino)isoquinoline-5,8-dione] | 3.67 ± 0.22 µM | – | 3.08 | 2.96
1.1 ± 0.03 µM | 14.8 ± 0.74 µM | 563 mV | – | – | – | COC(=O)c1c(C)ncc2c1C(=O)C=C(Nc1ccccc1)C2=O [5a] | 2.7 ± 0.6 µM | – | – | –
4.28 ± 0.21 µM | > 100 µM | 576 mV | 188.5 to 190 °C | – | – | COc1ccc(NC2=CC(=O)c3c(C(C)=O)c(C)nc(-c4cccs4)c3C2=O)cc1 [6f, 4-Acetyl-7-(4-methoxyphenylamino)-3-methyl-1-(thiophen-2-yl)isoquinoline-5,8-dione] | > 100 µM | – | > 23 | –
1.79 ± 0.11 µM | 8.19 ± 0.57 µM | 533 mV | 187 to 188.5 °C | – | – | CC(=O)c1c(C)nc(-c2ccco2)c2c1C(=O)C=C(Nc1ccccc1)C2=O [6d, 4-Acetyl-1-(2-furyl)-3-methyl-7-(phenylamino)isoquinoline-5,8-dione] | 5.72 ± 0.24 µM | – | – | –
3.28 ± 0.13 µM | 10.26 ± 0.09 µM | 583 mV | 214 to 216 °C | – | – | COC(=O)c1c(C)nc(-c2cccs2)c2c1C(=O)C=C(Nc1ccc(OC)cc1)C2=O [5f, Methyl 7-(4-methoxyphenylamino)-3-methyl-5,8-dioxo-1-(thiophen-2-yl)-5,8-dihydroisoquinoline-4-carboxylate] | 9.19 ± 0.53 µM | – | – | –
1.83 ± 0.11 µM | 8.04 ± 0.49 µM | 577 mV | 144 to 146 °C | – | – | COC(=O)c1c(C)nc(-c2ccco2)c2c1C(=O)C=C(Nc1ccc(OC)cc1)C2=O [5h, Methyl 1-(2-furan-2-yl)-7-(4-methoxyphenylamino)-3-methyl-5,8-dioxo-5,8-dihydroisoquinoline-4-carboxylate] | 4.58 ± 0.35 µM | – | – | –
2.21 ± 0.09 µM | 4.74 ± 0.37 µM | 588 mV | 181.5 to 183 °C | – | – | CC(=O)c1c(C)nc(-c2ccccc2)c2c1C(=O)C=C(Nc1ccccc1)C2=O [6b, 4-Acetyl-3-methyl-1-phenyl-7-(phenylamino)isoquinoline-5,8-dione] | 5.51 ± 0.22 µM | – | – | –
4.66 ± 0.28 µM | 9.36 ± 0.72 µM | 570 mV | 162 to 163 °C | – | – | COc1ccc(NC2=CC(=O)c3c(C(C)=O)c(C)nc(-c4ccccc4)c3C2=O)cc1 [6e, 4-Acetyl-7-(4-methoxyphenylamino)-3-methyl-1-phenylisoquinoline-5,8-dione] | 16.1 ± 1.11 µM | – | – | –
2.52 ± 0.17 µM | 4.39 ± 0.26 µM | 560 mV | 169.9 to 171.4 °C | – | – | COC(=O)c1c(C)nc(-c2ccccc2)c2c1C(=O)C=C(Nc1ccccc1)C2=O [5c, Methyl 3-methyl-5,8-dioxo-1-phenyl-7-(phenylamino)-5,8-dihydroisoquinoline-4-carboxylate] | 5.91 ± 0.36 µM | – | – | –
> 100 µM | > 100 µM | 576 mV | 93.5 to 94.5 °C | – | – | CC(=O)c1c(C)nc(-c2cccs2)c2c1C(=O)C=C(Nc1ccccc1)C2=O [6c, 4-Acetyl-3-methyl-7-(phenylamino)-1-(thiophen-2-yl)isoquinoline-5,8-dione] | > 100 µM | – | – | –
